± gives the standard deviation of the averaged measurements.
Tests used:
[1] = compound: O=P(O)(O)CCC(F)(F)C(F)(F)C(F)(F)C(F)(F)C(F)(F)C(F)(F)F [2-(Perfluorohexyl)ethylphosphonic acid]; experiment: level (log10 ratio to DMSO vehicle control); higher = higher biomarker level / cell amount than vehicle control; conditions: in DMSO
Procedure: (§1)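 BioMAP Diversity Plus panel of 12 human primary cell co-culture systems (3C, 4H, LPS, SAg, BT, BF4T, BE3C, CASM3C, HDF3CGF, KF3CT, MyoF, Mphg). Compounds were added 1 h before stimulation and left for 24 h (MyoF 48 h; BT 72 h for soluble read-outs or 6 d for IgG). Biomarkers were read by ELISA, cytotoxicity by SRB, PBMC viability and proliferation by Alamar Blue. Each well value was divided by the mean of 8 DMSO control wells on the same plate and log10 transformed; duplicate blinded samples were tested at 4 concentrations.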

[2] = compound: OCC(F)(F)C(F)(F)C(F)(F)C(F)(F)C(F)(F)C(F)(F)C(F)(F)C(F)(F)CO [1H,1H,10H,10H-Perfluorodecane-1,10-diol]; experiment: as above; conditions: in DMSO
Procedure: as §1

Row | Test System | level (log10) ([1]; 6700 nM) | level (log10) ([1]; 20000 nM) | level (log10) ([1]; 60000 nM) | level (log10) ([2]; 6700 nM) | level (log10) ([2]; 20000 nM) | level (log10) ([2]; 60000 nM)
1 | CASM3C:CD141/Thrombomodulin | 0.027 ± 0.017 | 0.0185 ± 0.011 | 0.016 ± 0.0042 | -0.0225 ± 0.028 | -0.0335 ± 0.04 | 0.026
2 | BE3C:tPA | -0.0765 ± 0.022 | -0.0835 ± 0.0078 | -0.0615 ± 0.086 | 0.073 ± 0.021 | 0.097 ± 0.011 | -0.108
3 | HDF3CGF:Collagen I | -0.016 ± 0.0042 | -0.0365 ± 0.005 | -0.0865 ± 0.09 | 0.029 ± 0.0014 | -0.01 ± 0.025 | 0.035
4 | HDF3CGF:CCL2/MCP-1 | -0.0335 ± 0.0021 | -0.013 ± 0.023 | -0.053 ± 0.023 | -0.01 | -0.0565 ± 0.036 | -0.724
5 | CASM3C:CD106/VCAM-1 | -0.0105 ± 0.035 | 0.041 ± 0.014 | 0.0775 ± 0.044 | 0 ± 0.02 | -0.0065 ± 0.025 | -0.151
6 | CASM3C:SRB | -0.0005 ± 0.0035 | -0.012 ± 0.017 | -0.016 ± 0.02 | 0.0015 ± 0.0021 | -0.002 ± 0.0099 | -0.067
7 | HDF3CGF:CD106/VCAM-1 | 0.041 ± 0.013 | 0.0625 ± 0.013 | 0 ± 0.0057 | -0.038 ± 0.016 | -0.0995 ± 0.073 | -0.322
8 | HDF3CGF:SRB | -0.025 ± 0.045 | 0.0355 ± 0.029 | 0.001 ± 0.05 | -0.0485 ± 0.021 | -0.0255 ± 0.091 | -0.224
9 | KF3CT:SRB | -0.0015 ± 0.0035 | -0.011 ± 0.0028 | -0.007 ± 0.013 | -0.0155 ± 0.015 | -0.022 ± 0.011 | -0.25
10 | HDF3CGF:EGFR | -0.012 ± 0.034 | -0.0255 ± 0.005 | 0.0195 ± 0.025 | -0.0015 ± 0.015 | 0.003 ± 0.023 | -0.224
11 | lMphg:CD40 | -0.0155 ± 0.0021 | -0.0165 ± 0.00071 | -0.012 ± 0.041 | -0.0285 ± 0.0064 | -0.0695 ± 0.032 | -0.536
12 | CASM3C:CXCL9/MIG | 0.0095 ± 0.025 | 0.005 ± 0.033 | 0.0335 ± 0.066 | -0.001 | -0.0035 ± 0.005 | -0.039
13 | CASM3C:CXCL8/IL-8 | -0.0185 ± 0.013 | -0.0015 ± 0.0021 | 0.0145 ± 0.005 | -0.0275 ± 0.028 | -0.048 ± 0.0099 | -0.011
14 | HDF3CGF:M-CSF | 0.0025 ± 0.0092 | 0.0265 ± 0.0092 | 0.013 ± 0.014 | 0.0095 ± 0.035 | 0.001 ± 0.038 | -0.304
15 | HDF3CGF:CXCL10/IP-10 | 0.014 ± 0.0028 | 0.0505 ± 0.0078 | 0.0525 ± 0.037 | -0.0045 ± 0.028 | -0.0355 ± 0.0035 | -0.578
16 | MyoF:MMP-1 | 0.008 ± 0.0042 | 0.008 ± 0.0099 | 0.0755 ± 0.052 | -0.0415 ± 0.013 | -0.0275 ± 0.012 | 0.284
17 | CASM3C:CCL2/MCP-1 | -0.009 ± 0.0028 | -0.0145 ± 0.013 | -0.003 ± 0.033 | 0 ± 0.0028 | -0.027 ± 0.0028 | 0.02
18 | MyoF:CXCL8/IL-8 | -0.013 ± 0.013 | 0.018 ± 0.018 | 0.0795 ± 0.018 | -0.0285 ± 0.0021 | -0.033 ± 0.013 | 0.025
19 | BE3C:uPA | -0.016 ± 0.0099 | -0.004 ± 0.0071 | 0.0075 ± 0.012 | -0.008 ± 0.011 | -0.0315 ± 0.0021 | -0.078
20 | MyoF:CD106/VCAM-1 | 0.0025 ± 0.011 | 0.01 ± 0.0014 | -0.001 | 0.0025 ± 0.021 | -0.0025 ± 0.025 | -0.19

Row | Test System | level (log10) ([1]; 6700 nM) | level (log10) ([1]; 20000 nM) | level (log10) ([1]; 60000 nM) | level (log10) ([2]; 6700 nM) | level (log10) ([2]; 20000 nM) | level (log10) ([2]; 60000 nM)
21 | lMphg:sIL-10 | -0.0015 ± 0.083 | -0.091 ± 0.0014 | -0.0775 ± 0.09 | -0.0265 ± 0.06 | -0.357 ± 0.27 | -1.1
22 | HDF3CGF:TIMP-2 | 0.0095 ± 0.042 | 0.0365 ± 0.036 | 0.0305 ± 0.036 | -0.006 ± 0.014 | -0.0105 ± 0.00071 | -0.095
23 | lMphg:SRB | -0.006 ± 0.0071 | -0.0025 ± 0.013 | 0.009 ± 0.017 | -0.0025 ± 0.013 | -0.014 ± 0.0057 | -1.09
24 | 3C:CCL2/MCP-1 | 0.001 ± 0.0042 | -0.0035 ± 0.019 | 0.019 ± 0.054 | -0.0015 ± 0.005 | 0.0055 ± 0.00071 | 0.018
25 | CASM3C:IL-6 | -0.0285 ± 0.005 | -0.0425 ± 0.018 | -0.0095 ± 0.025 | -0.045 ± 0.027 | -0.071 ± 0.025 | -0.059
26 | MyoF:alpha-SM Actin | 0.037 ± 0.079 | 0.0415 ± 0.067 | 0.0575 ± 0.063 | -0.0025 ± 0.019 | -0.041 ± 0.03 | -0.395
27 | lMphg:M-CSF | -0.0175 ± 0.016 | -0.0335 ± 0.015 | -0.0075 ± 0.016 | -0.0155 ± 0.005 | -0.031 | -0.097
28 | BE3C:PAI-I | -0.036 ± 0.0028 | -0.0065 ± 0.012 | 0.052 ± 0.04 | 0.041 ± 0.0085 | -0.0655 ± 0.0035 | -0.192
29 | KF3CT:IL-1alpha | 0.0005 ± 0.0078 | 0.0225 ± 0.00071 | 0.0455 ± 0.012 | 0.005 ± 0.027 | -0.01 ± 0.021 | 0.109
30 | HDF3CGF:Collagen III | 0.0135 ± 0.0078 | 0.0075 ± 0.018 | -0.0305 ± 0.012 | -0.035 ± 0.0071 | -0.094 ± 0.045 | -0.438
31 | KF3CT:CXCL9/MIG | 0.0055 ± 0.0021 | -0.001 ± 0.0099 | 0.006 ± 0.0071 | -0.0055 ± 0.0092 | -0.0085 ± 0.005 | -0.195
32 | MyoF:Decorin | -0.0035 ± 0.023 | 0.0075 ± 0.0021 | 0.0385 ± 0.00071 | 0.004 ± 0.027 | -0.0005 ± 0.042 | 0.007
33 | KF3CT:TIMP-2 | -0.0075 ± 0.012 | 0.011 | 0.013 ± 0.017 | -0.001 ± 0.011 | 0.011 ± 0.0099 | -0.133
34 | lMphg:CXCL8/IL-8 | -0.008 ± 0.0028 | -0.0315 ± 0.033 | 0.0385 ± 0.026 | 0.03 ± 0.035 | 0.0055 ± 0.018 | -0.19
35 | CASM3C:M-CSF | 0.0025 ± 0.005 | 0.0115 ± 0.011 | -0.0055 ± 0.037 | -0.052 ± 0.027 | -0.054 ± 0.014 | -0.065
36 | KF3CT:CD54/ICAM-1 | -0.0015 ± 0.011 | 0.006 ± 0.028 | 0.02 ± 0.02 | -0.002 ± 0.0085 | -0.018 ± 0.0057 | -0.125
37 | CASM3C:LDLR | -0.011 ± 0.017 | -0.0115 ± 0.0092 | -0.0135 ± 0.0092 | -0.016 ± 0.035 | 0.0035 ± 0.016 | -0.048
38 | 3C:CD54/ICAM-1 | -0.0165 ± 0.012 | -0.018 ± 0.0014 | -0.0095 ± 0.005 | -0.01 ± 0.0014 | -0.0035 ± 0.005 | -0.006
39 | lMphg:CCL2/MCP-1 | -0.004 ± 0.0071 | 0.01 ± 0.0042 | -0.0105 ± 0.005 | -0.0125 ± 0.016 | -0.0145 ± 0.005 | -0.653
40 | KF3CT:CCL2/MCP-1 | -0.0405 ± 0.019 | -0.0515 ± 0.023 | -0.043 ± 0.013 | -0.028 ± 0.021 | -0.024 ± 0.016 | -0.272

From the supplement of paper PMC10331698
